US11807608B2, “Polymerizable compounds with one or more surfactant-like properties” (University of Manitoba, priority 2017, dated 2023)

Test: Surface tension by Wilhelmy plate (KRUSS K100 Tensiometer, ASTM D1331-14)
Assay type: physicochemical
Description: A KRUSS K100 Tensiometer was used to determine the surface tension of a sample of the compounds in liquid water at different concentrations. The concentrations tested were 0.5%, 1.0%, 3.0%, 5.0% and 10%. A platinum plate with dimensions of about 19.9 mm×about 0.2 mm×about 10 mm (width, thickness and height respectfully) was attached to a sensitive mass balance. The sample was raised to the fixed platinum plate at a rate of 10 mm/min with a detection sensitivity of 0.005 g until the liquid sample reached the bottom of the plate. The plate was then immersed in the liquid sample at a depth of 2 mm for 60-150 seconds and any change in mass was recorded by the equipment as a function of time. Force was determined using the equation f=ma.
The surface tension (γ) of each liquid sample was calculated from the force measurement (f) using the equation outlined in Method C: Surface Tension by Wilhelmy plate, ASTM D1331-14.
[formula] where (l) is the length and (t) is the thickness of the plate. The contact angle was assumed to be 0. The test results describe a trend and general indication of the surfactant properties of each compound tested.

[1] = 0.5% in water, 150 second measurement
[2] = 1.0% in water, 150 second measurement
[3] = 3.0% in water, 150 second measurement
[4] = 5.0% in water, 150 second measurement
[5] = 10.0% in water, 150 second measurement

SMILES | Surface Tension Mean (0.5% in water, 60 second measurement) [mN/m] | Surface Tension Mean (1.0% in water, 60 second measurement) [mN/m] | Surface Tension Mean (3.0% in water, 60 second measurement) [mN/m] | Surface Tension Mean (5.0% in water, 60 second measurement) [mN/m] | Surface Tension Mean (10.0% in water, 60 second measurement) [mN/m] | Surface Tension Mean [1] [mN/m] | Surface Tension Mean [2] [mN/m] | Surface Tension Mean [3] [mN/m] | Surface Tension Mean [4] [mN/m] | Surface Tension Mean [5] [mN/m]
C=C(C)C(=O)NCCC[N+](C)(C)CCCCCCCCCC[N+](C)(C)C1CC(C)(C)NC(C)(C)C1.[Br-].[Br-] [Formula 5, PIP-C10-C3-methyl, methyl, acrylamide] | 36.93 | 32.55 | 31.23 | 30.28 | 29.57 | – | – | – | – | –
C=C(C)C(=O)OCC[N+](C)(C)CCCCCCCCCC[N+](C)(C)C1CC(C)(C)NC(C)(C)C1.[Br-].[Br-] [Formula 6] | – | – | – | – | – | 47.18 | 39.51 | 36.93 | 35.50 | 36.39
C=C(C)C(=O)OCCCCCCCCCCC[N+](C)(C)C1CC(C)(C)NC(C)(C)C1.[Br-] [Formula 9] | – | – | – | – | – | 37.16 | 36.19 | 35.80 | 35.84 | 30.44
